One assay deals with rats. In words: Locomotor activity in rats. The format is in vivo. Conditions: for Locomotor activity, Crossing number / Locomotor activity, Rearing number: Rats, mean ± S.E.M. The method, then:
(§1) In order to confirm whether GW117 has an antidepressant activity, we used spontaneous activities in mice and rats to determine whether GW117 affects the central system. 64 ICR mice were randomly allocation to five therapy groups ([…]): control group, 5 mg/kg GW117, 10 mg/kg GW117, 20 mg/kg GW117, and 40 mg/kg GW117. All rats and mice received one administration (p.o.). After sixty minutes of gavage administration, each mouse or rat was located in the corner of an open field chamber (36 × 29 × 23 cm for mice; 76 × 76 × 46 cm for rats) to adapt to 5 min. The numbers of crossings and rearings were recorded during the subsequent 5 min.

The test system of a further assay is CUS rats. In words: Open field test in chronic unpredictable stress (CUS) rats. It is filed as in vivo. Conditions: CUS rats, 5, 10, 20, 40 mg/kg p.o., 4‐week stress, vs. CUS‐vehicle. The protocol:
In order to further examine the antidepressant effects of GW117, chronic unpredictable stress (CUS) model was utilized; the methods were as described before. ^29 , ^31 After 1 week of training, rats underwent sucrose training of 48 h. After training, a sucrose baseline test was performed. […] Gastric gavage was given 1 h before the stress (08:00–09:00). Except for the non‐stressed group, all rats were stimulated by a series of stressors. stress methods included the following: fast on food and water (24 h), moisture cage (150 g sawdust bedding in 200 ml water), overnight illumination, low‐intensity strobe illumination (100 flashes/min), forced swimming (5 min at 10℃), white noise (110 dB), tail pinch (1 cm from tail root, 6 min), 45℃ cage tilt, and restraint (1–2 h). Stressors need to be used continuously and randomly. Non‐stressed rats received free food and water, but were required to fast for 14 h before sucrose preference test. After 4 weeks of stress, the sucrose preference test (SPT) (on day 25), open field test (OFT) (on day 28), and novelty‐suppressed feeding (NSF) test (on day 29) were carried out.
The OFT device was a chamber (diameter, 122 cm; height, 45 cm) that was grouped equally into 16 sections. 24 h after the last administration, rats were put into the center of the chamber and the numbers of crossings and readings were recorded in 5 min.

For another assay, the system named is mice. In words: Locomotor activity in mice. It is filed as in vivo, ICR mice. As to conditions: for Locomotor activity, Crossing number / Locomotor activity, Rearing number: Mice, mean ± S.E.M. The protocol: as §1
The target of the next assay is T1, MT1 receptor (Homo sapiens, UniProt P48039).
T1 construct: purchased Perkin‐Elmer ES‐620
T1 sequence (P48039 whole entry): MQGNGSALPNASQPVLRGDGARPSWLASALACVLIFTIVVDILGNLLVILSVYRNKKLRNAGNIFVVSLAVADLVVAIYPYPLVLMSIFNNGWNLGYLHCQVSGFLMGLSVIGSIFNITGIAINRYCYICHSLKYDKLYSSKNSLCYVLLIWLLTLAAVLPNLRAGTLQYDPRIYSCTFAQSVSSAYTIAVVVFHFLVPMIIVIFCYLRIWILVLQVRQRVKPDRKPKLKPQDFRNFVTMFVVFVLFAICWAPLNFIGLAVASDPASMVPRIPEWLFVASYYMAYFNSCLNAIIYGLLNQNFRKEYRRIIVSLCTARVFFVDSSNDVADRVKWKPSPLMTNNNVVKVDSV
In words: MT1 receptor binding assay ([3H]‐melatonin competition). Conditions: mean ± SEM, three independent experiments. The protocol: The stably transfected 5‐HT2C receptor HEK293 cell line was prepared using a nucleus‐cytoplasm‐membrane preparation kit (Applagin Technologies Inc.). Briefly, cells were harvested at 4°C, 110 00 × g and centrifugation for 5 min. Homogenize pellets in the assay buffer (50 mM Tris‐HCl buffer containing 120 mM NaCl and 5 mM KCl, pH 7.4) and then centrifuged twice at 4°C, 36,000 × g for 15 min. Finally, pellets were re‐suspended in assay buffer and stored it at −80°C until it is used for in vitro experiments.
Receptor membrane protein, MT1 or MT2 (10 μl), was added to all pipes. Non‐specific binding was determined by the presence of unlabeled 10 µM melatonin and pre‐reacted for 30 min. In test tubes, 30 μl of test drugs (MT1: concentration, 10^−4–10^−10 M; MT2: concentration, 10^−4–10^−11 M) was added. Additionally, 40 μl [^3H]‐melatonin was added to all tubes. The volume in all reaction tubes was made up to 300 μl with Tris‐HCl buffer (50 mM, pH 7.4). Reactions were performed at 25°C for 1 h. The mixture was then spotted onto a type 49 glass fiber filter paper, suction filtered under vacuum, rinsed three times with 2 ml ice‐cold Tris‐HCl buffer (50 mM, pH 7.4), and dried by suction. […] Finally, 1 ml of scintillation fluid was added and then the radioactive intensity measured by liquid scintillation counting.

The target of another assay is T2, MT2 receptor (Homo sapiens, UniProt P49286).
T2 construct: purchased Perkin‐Elmer ES‐621
T2 sequence (P49286 1-362): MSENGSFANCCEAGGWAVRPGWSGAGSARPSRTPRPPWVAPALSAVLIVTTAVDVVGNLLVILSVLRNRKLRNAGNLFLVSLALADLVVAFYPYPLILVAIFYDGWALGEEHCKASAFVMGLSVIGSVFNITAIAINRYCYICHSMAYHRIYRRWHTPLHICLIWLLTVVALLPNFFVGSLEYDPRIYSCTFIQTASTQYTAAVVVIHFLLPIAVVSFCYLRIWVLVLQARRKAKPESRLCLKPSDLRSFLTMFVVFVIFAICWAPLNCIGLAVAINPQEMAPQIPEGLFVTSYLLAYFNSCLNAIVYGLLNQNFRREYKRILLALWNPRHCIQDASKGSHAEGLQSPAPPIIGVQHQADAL
In words: [35S]‐GTPγS binding assay, MT2. It is filed as biochemical. The protocol:
This experiment was mentioned earlier. ^27 In short, HEK293 cell membrane stably expressing human 5‐HT2C receptors or rat hippocampal tissue membrane or MT1/MT2 receptors was re‐suspended in buffer (50 mmol/L Tris, 100 mmol/L NaCl, 5 mmol/L MgCl2·6H2O, 0.1 mmol/L EDTA‐Na2·6H2O, 0.2 mmol/L EGTA, pH 7.4) and incubated with the test compound (100 μM GDP, 0.2 nM [^35S]‐GTP, or [^3H]PIP) for 60 min at 28℃. At the end of the experiment, Whatman GF/C filters pre‐soaked with distilled water were used for rapid filtration followed by washing with 5 ml of ice‐cold Tris buffer. Determination of non‐specific binding in the presence of GTPγS and radioactivity was measured by liquid scintillation counting. Calculation of the concentration produces a half‐maximal effect (EC50) and the maximal increase above the baseline value.

SMILES strings stand for the structures.

Take `[2H]C([2H])([2H])Oc1cc2c(CCNC(C)=O)cccc2cc1Cl` [GW117]: the “Locomotor activity, Crossing number” value was 70.3 ± 5.1 in the assay with rats (5 mg/kg p.o.); 71.3 ± 6.8 in the assay with rats (10 mg/kg p.o.); 60.9 ± 4.4 with rats (20 mg/kg p.o.); 63.5 ± 4.6 in the assay with rats (40 mg/kg p.o.); 86.8 ± 4.4 in the assay with mice (5 mg/kg p.o.); 80.1 ± 4.8 in the assay on mice (10 mg/kg p.o.). The “Locomotor activity, Crossing number” value in the assay with mice (40 mg/kg p.o.) is listed as 86.3 ± 4.4. Further, the “Locomotor activity, Rearing number” value in the assay with rats (5 mg/kg p.o.) came to 14.2 ± 1.4; in the assay on rats (10 mg/kg p.o.) it was 14.9 ± 1.5; in the assay with rats (20 mg/kg p.o.), 13.8 ± 1.3; in the assay with rats (40 mg/kg p.o.), 12.8 ± 1.3; in the assay with mice (5 mg/kg p.o.) it was 22.7 ± 1.8; with mice (10 mg/kg p.o.), 22.6 ± 2.1. The entries for the “Locomotor activity, Rearing number” value in the assay with mice (20 mg/kg p.o.) and with mice (40 mg/kg p.o.) were 20.7 ± 1.5 and 21.3 ± 1.4, respectively. Also, the “effect on number of crossings and rearings in the spontaneous activity test” value is listed as “had no effect” with rats (rats, 5, 10, 20, or 40 mg/kg by gavage) and “had no effect” in the assay on mice (mice, 5, 10, 20, or 40 mg/kg by gavage). For the same compound, the “number of rearings and crossings in open field” value in the assay with CUS rats was “markedly add to the number of rearings and crossings”. For the same compound, at MT1 receptor, the affinity corresponds to a Ki of 0.12 ± 0.06 nM. Besides, at MT2 receptor ([35S]‐GTPγS binding), the “character of effect on MT2 receptor” value is “full agonist”. Moreover, the maximal effect (Emax) (usually the maximal effect, on the per cent scale that the assay sets) on MT2 receptor ([35S]‐GTPγS binding, read-out: maximal increase over basal binding (% Emax), MT2 receptor) came out at 103 ± 4.56%. Besides, the EC50 – broadly, the concentration needed to bring the measured effect to its halfway point – at MT2 receptor (read-out: EC50 of stimulation of specific [35S]‐GTPγS binding, MT2 receptor) came to 1.54 nM.
